Among the test systems are 786-0 renal; A498 renal; EKVX NSCLC; HCT-116 colon; HL-60(TB) leukemia; HOP-62 NSCLC; SK-MEL-2 melanoma; SK-MEL-28 melanoma; UACC-62 melanoma.
What all share (experiment): inhibition of tumour cell growth, NCI panel, 48 h

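Method: 48-hour compound exposure of cells in 96-well plates, five concentrations, linear interpolation of endpoints. Definition used: TGI = concentration required for complete inhibition of growth.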

Turning to `C=C1c2[nH]c3c([N+](=O)[O-])c(OC)ccc3c2CCN1C(C)=O`, the TGI in the assay on 786-0 renal, in the assay with A498 renal, in the assay on EKVX NSCLC, in the assay with HCT-116 colon, with HL-60(TB) leukemia and in the assay with HOP-62 NSCLC was above 100 µM in each case. Also, the TGI with SK-MEL-2 melanoma, with SK-MEL-28 melanoma and in the assay with UACC-62 melanoma was above 100 µM each time.
On to `C/C(CC(=O)Nc1ccc(Cl)cc1)=N\NC(N)=S`, for which the TGI with 786-0 renal, with A498 renal, with EKVX NSCLC, in the assay with HCT-116 colon, in the assay with HL-60(TB) leukemia and in the assay on HOP-62 NSCLC was above 100 µM each time. Further, the TGI in the assay with SK-MEL-2 melanoma, in the assay on SK-MEL-28 melanoma and in the assay on UACC-62 melanoma was above 100 µM in each case.
In the case of `C[C@]12CCC3[C@@H](CC[C@@H]4c5nonc5CC[C@]34C)C1C/C(=N/O)C2=O` (some centres undefined), the TGI was above 100 µM with 786-0 renal; above 100 µM with A498 renal; above 100 µM with EKVX NSCLC; above 100 µM in the assay with HCT-116 colon; 13.3 µM in the assay with HL-60(TB) leukemia; above 100 µM with HOP-62 NSCLC. In addition, the TGI with SK-MEL-2 melanoma was 52 µM; in the assay on SK-MEL-28 melanoma, above 100 µM; in the assay on UACC-62 melanoma it was above 100 µM.
`CCOC(=O)NC(=O)c1cn(CCCCCCOC(=O)NCCCCCCNC(=O)OCCCCCCn2cc(C(=O)NC(=O)OCC)c(=O)[nH]c2=O)c(=O)[nH]c1=O`: the TGI in the assay with 786-0 renal, with A498 renal, with EKVX NSCLC, in the assay with HCT-116 colon, in the assay with HL-60(TB) leukemia and with HOP-62 NSCLC was above 100 µM each time. In addition, the TGI with SK-MEL-2 melanoma, with SK-MEL-28 melanoma and in the assay with UACC-62 melanoma was above 100 µM each time.
For the compound `CN(C(=O)c1ccco1)C(=S)N1CCN(c2ccccc2)CC1`, the TGI with 786-0 renal, in the assay on HCT-116 colon, with HL-60(TB) leukemia, with HOP-62 NSCLC, in the assay on SK-MEL-2 melanoma and in the assay on SK-MEL-28 melanoma was above 100 µM throughout. Besides, the TGI in the assay with UACC-62 melanoma was above 100 µM.
Take `O=C1CC(S(=O)(=O)O)C=C1Nc1cccc(Cl)c1` (centres undefined): the TGI in the assay on 786-0 renal, with A498 renal, in the assay with EKVX NSCLC, in the assay with HCT-116 colon, with HL-60(TB) leukemia and in the assay with HOP-62 NSCLC was above 100 µM throughout. In addition, the TGI in the assay with SK-MEL-2 melanoma, in the assay with SK-MEL-28 melanoma and in the assay on UACC-62 melanoma was above 100 µM each time.
With `Cc1ccc(N2C(=O)C3C=CC(n4[nH]c(=O)n(Cc5ccccc5)c4=O)CC3C2=O)cc1` (centres undefined), the TGI in the assay on 786-0 renal, in the assay with A498 renal, with EKVX NSCLC, with HCT-116 colon, with HL-60(TB) leukemia and in the assay on HOP-62 NSCLC was above 100 µM in each case. Moreover, the TGI in the assay with SK-MEL-2 melanoma, in the assay with SK-MEL-28 melanoma and in the assay on UACC-62 melanoma was above 100 µM in each case.
With `O=CC1CCCc2ccccc21` (centres undefined), the TGI in the assay on 786-0 renal was above 100 µM; in the assay on A498 renal, above 100 µM; with EKVX NSCLC it was above 100 µM; with HCT-116 colon it was above 77.2 µM; in the assay on HL-60(TB) leukemia, above 100 µM; in the assay on HOP-62 NSCLC it was above 100 µM. The TGI in the assay with SK-MEL-2 melanoma, with SK-MEL-28 melanoma and in the assay with UACC-62 melanoma was above 100 µM throughout.
In the case of `COC(=O)c1cc(Cl)ccc1NC(=O)c1ccc([N+](=O)[O-])cc1`, the TGI was 38.2 µM in the assay on 786-0 renal; 34.5 µM in the assay on A498 renal; above 100 µM with EKVX NSCLC; 17.9 µM in the assay on HCT-116 colon; above 100 µM with HL-60(TB) leukemia; 38.8 µM with HOP-62 NSCLC. The TGI is above 100 µM with SK-MEL-2 melanoma, above 100 µM in the assay with SK-MEL-28 melanoma and 66.5 µM in the assay with UACC-62 melanoma.
Consider `COc1ccc(/C=N/N=C(\N)NO)c(OC)c1`, for which the TGI in the assay on 786-0 renal is above 100 µM; with EKVX NSCLC, above 100 µM; in the assay on HCT-116 colon it was above 100 µM; with HOP-62 NSCLC, 84.3 µM; with SK-MEL-2 melanoma, above 100 µM; with SK-MEL-28 melanoma it was above 100 µM. For the same compound, the TGI in the assay with UACC-62 melanoma is above 100 µM.
As to `O=S1(=O)OCCOS(=O)(=O)C1Cc1ccccc1`, the TGI in the assay on 786-0 renal was above 100 µM; in the assay with A498 renal, above 100 µM; in the assay with EKVX NSCLC, above 100 µM; with HCT-116 colon, above 100 µM; in the assay on HL-60(TB) leukemia, 54.5 µM; in the assay on HOP-62 NSCLC, above 100 µM. In addition, the TGI in the assay with SK-MEL-28 melanoma and in the assay with UACC-62 melanoma was above 100 µM throughout.
With `COC(=O)C1=C(c2cc(OC)c(OC)c(OC)c2)OC(c2ccc(OC)c(OC)c2)C1` (centres undefined), the TGI was above 100 µM with 786-0 renal; 69.3 µM with A498 renal; above 100 µM with EKVX NSCLC; above 100 µM with HCT-116 colon; above 100 µM with HL-60(TB) leukemia; above 100 µM in the assay with HOP-62 NSCLC. Moreover, the TGI in the assay with SK-MEL-2 melanoma, in the assay on SK-MEL-28 melanoma and in the assay with UACC-62 melanoma was above 100 µM each time.
As for `COc1ccc(C(=O)C(c2ccc(OC)cc2)C2(O)C(=O)Nc3c2ccc(Cl)c3C)cc1` (centres undefined), the TGI in the assay with 786-0 renal, in the assay on A498 renal, in the assay on EKVX NSCLC, in the assay on HCT-116 colon, in the assay with HL-60(TB) leukemia and in the assay with HOP-62 NSCLC was above 100 µM throughout. The TGI with SK-MEL-2 melanoma, in the assay on SK-MEL-28 melanoma and in the assay on UACC-62 melanoma was above 100 µM throughout.
For `C1=C2/CC[C@H](Sc3ccccc3)[C@H]2C2(CCCCC/1)OCCO2`, the TGI was above 100 µM with 786-0 renal; 54.5 µM in the assay with EKVX NSCLC; above 100 µM in the assay on HCT-116 colon; 65.7 µM with HL-60(TB) leukemia; above 100 µM in the assay with HOP-62 NSCLC; 33.2 µM with SK-MEL-2 melanoma. Moreover, the TGI with SK-MEL-28 melanoma is above 100 µM; in the assay on UACC-62 melanoma it was 62.4 µM.
Take `N#CC(c1nc2ccccc2nc1Cl)S(=O)(=O)c1ccccc1` (centres undefined): the TGI in the assay on 786-0 renal, in the assay with A498 renal, with EKVX NSCLC, in the assay on HCT-116 colon, in the assay with HL-60(TB) leukemia and with HOP-62 NSCLC was above 100 µM throughout. Further, the TGI in the assay on SK-MEL-2 melanoma, with SK-MEL-28 melanoma and in the assay with UACC-62 melanoma was above 100 µM in each case.

The values above are taken from PubChem BioAssay (NCI).
